# In patent US10239836B2, “Benzenecarbothioccyclopenta[c] pyrrole-1,3-dione compounds and process for synthesis thereof” (Council of Scientific & Industrial Research, priority 2014, dated 2019):
# Like-named read-outs stand apart in the source and are kept apart here.
# Tests used:
# [1] = tested on: LPS induced NO generation in RAW 264.7 cells; assay: Inhibition of LPS induced NO generation (nitrite, Griess reagent); type: cell-based, Mouse; details: for IC50: RAW 264.7 cells, LPS 1 μg/ml, 24 h, serum-free, read-out: NO inhibition (B) IC50; for Selectivity index (A/B): cytotoxicity IC50 / NO inhibition IC50, RAW 264.7 cells
# Description: (§1) Mouse macrophage cell line RAW 264.7 was maintained in laboratory at 37° C. in
# (§2) RPMI-1640 media supplemented with 10% heat-inactivated fetal bovine serum (FBS) and penicillin/streptomycin.
# Nitrite, a stable oxidized product of NO, was measured in culture supernatant using Griess reagent (Sigma Aldrich) according to a previously reported method (2). After overnight seeding in 96-well plate (2×10^4 cells/well), RAW 264.7 cell was treated with lipopolysaccharide (LPS; Sigma) at a concentration of 1 μg/ml along with different doses of compounds (as determined from cytotoxicity assay) in serum-free culture for 24 h. Following treatment, media was collected and centrifuged at 2,000 rpm for 5 min to remove cellular debris. 50 μl of this media was then reacted with equal volume of Griess reagent for 15 min at room temperature in dark and absorbance was taken at 540 nm using Microplate reader (Biorad, USA). Nitrite concentrations were determined using standard solutions of sodium nitrite prepared in cell culture medium.
# [2] = Cytotoxicity assay (MTT viability); type: cell-based, Mouse; details: mouse; RAW 264.7 cells, MTT, 24 h treatment, serum free
# Description: as §1, §2
# (§3) Viability of cultured cells was determined by (4,5-dimethylthiazol-2-yl)-2,5-diphenyltetrazolium bromide (MTT; Sigma) as described earlier (1). RAW 264.7 was seeded in triplicate at a density of 2×10^4 cells per well on a 96-well plate. […] MTT solution (0.5 mg/ml) was then added to each well and incubate for 4 h at 37° C. At the end of the incubation period, the medium was removed and the resulting purple formazan was solubilized with acidic isopropanol (0.1 N HCl in absolute isopropanol), and the absorbance was read at 570 nm using Biorad Microplate reader (Biorad, USA).
# [3] = tested on: RAW 264.7 cells; assay: Cytotoxicity assay (MTT viability); type: cell-based, Mouse
# Description: as §1, §2, §3
# [4] = tested on: H1N1 virus; details: MDCK cells; Yang et al., Organic Letter 2013; cited from earlier work
Structure (SMILES),"IC50 ([1]; Mus musculus, RAW264.7)",Selectivity index (A/B) [1],IC50 at 24 h [2],melting point,IC50 [1],IC50 [3],inhibitory activities against the H1N1 virus [4]
"CC(=O)S[C@]12CCC[C@H]1C(=O)NC2=O (relative stereo) [Compound 18, S-((3aR*,6aS*)-1,3-Dioxohexahydrocyclopenta[c]pyrrol-3a(1H)-yl) ethanethioate]",59.2 µM,11.39,674 µM,120 to 122 °C,,,
"O=C(S[C@]12CCC[C@H]1C(=O)NC2=O)c1ccc(F)cc1 (relative stereo) [Compound 20, S-((3aR*,6aS*)-1,3-Dioxohexahydrocyclopenta[c]pyrrol-3a(1H)-yl) 4-fluorobenzothioate]",390 µM,0.9841,384 µM,186 to 187 °C,,,
"O=C(S[C@]12CCC[C@H]1C(=O)NC2=O)c1ccccc1Cl (relative stereo) [Compound 21, S-((3aR*,6aS*)-1,3-Dioxohexahydrocyclopenta[c]pyrrol-3a(1H)-yl) 2-chlorobenzothioate]",59.8 µM,13.95,834 µM,188 to 190 °C,,,
"CC(=O)O[C@@H]1CCC2=C1C(=O)NC2=O [(−)-5, (R)-1,3-dioxo-1,2,3,4,5,6-hexahydrocyclopenta[c]pyrrol-4-yl]",,,,,867 µM,128 µM,
"CC(=O)SC12CCC=C1C(=O)NC2=O (stereo not drawn) [Compound 26, S-(1,3-Dioxo-2,3,4,5-tetrahydrocyclopenta[c]pyrrol-3a(1H)-yl)ethanethioate]",20.5 µM,9,184 µM,170 to 172 °C,,,
"O=C(Cc1ccccc1)SC12CCC=C1C(=O)NC2=O (stereo not drawn) [Compound 27, S-(1,3-Dioxo-2,3,4,5-tetrahydrocyclopenta[c]pyrrol-3a(1H)-yl) 2-phenylethanethioate]",30.6 µM,3.042,93.1 µM,155 to 158 °C,,,
"O=C1NC(=O)C2=C1CCC2SC(=O)c1cccs1 (stereo not drawn) [Compound 29, S-(1,3-Dioxo-1,2,3,4,5,6-hexahydrocyclopenta[c]pyrrol-4-yl) thiophene-2-carbothioate]",65 µM,0.4108,26.7 µM,138 to 139 °C,,,
O=C(S[C@@]12CC[C@H](O)[C@@H]1C(=O)NC2=O)c1ccc(O)cc1 [Nitrosporeusine A],,,,,,,exhibited inhibitory activities
O=C(S[C@@]12CC[C@@H](O)[C@@H]1C(=O)NC2=O)c1ccc(O)cc1 [Nitrosporeusine B],,,,,,,exhibited inhibitory activities
